In patent US20160279190A1, “MODULATION OF AXON DEGENERATION” (GENENTECH, INC., priority 2008, published 2016):

System: sympathetic neurons
Test: toxin-induced degeneration of sympathetic neurons, MTT assay
Format: cell-based, rat
Details: 24 hour treatment with the toxin alone
Method: Cortical neurons plated for 3-4 days were treated with 300 nM vincristine, a microtubule destabilizer, for 6-72 hours. NGF withdrawal-induced apoptosis and degeneration were assayed between 4-36 hours after the final treatment. Apoptosis and degeneration were assayed using both the MTT assay and the lactate dehydrogenase assay. The MTT (3-(4,5-dimethylthiazol-2-yl)-2,5-diphenyltetrazolium bromide) assay measures cell viability based on mitochondrial function. MTT was added to a total of one tenth of the culture volume to each well and incubated at 37° C. with 5% CO2 for 90-120 minutes. The MTT-containing culture media was aspirated and the cells were resuspended in an equal volume of solubilization solution (10% triton X-100, 1 drop HCl, 50 mL isopropanol). Absorbance (570 and 690 nm) was read using a spectrophotometer. Lactate dehydrogenase (LDH) levels were assayed using a CytoTox non-radioactive LDH assay kit (Promega) to assess the amount of cell death in assays. Fifty μL of media from different treatment conditions were used according to the manufacturer's instructions. […]
Sympathetic cervical ganglia were dissected from postnatal day 1 Sprague-Dawley rats (Charles River Labs) and collected in a dish containing Ultraculture media (Lonza) with 5% fetal bovine serum (Invitrogen). […] The cell slurry was filtered over a […] cell strainer (Falcon) and cell number was counted. […]

SMILES: CC[C@@]1(O)C(=O)OCc2c1cc1n(c2=O)Cc2cc3ccccc3nc2-1 [camptothecin]
- % viability (normalized): 79%
